Reference: article PMC5502112 (Brain research, 2017)
Numbering of substitutions follows the chain as printed.

Assays:
Assay in all cases: inside-out patch clamp, HEK293
Assay type in all cases: biochemical
[1] = molecular target: T1, Kir4.1 (Rattus norvegicus, UniProt P49655)
T1 sequence (P49655 1-379): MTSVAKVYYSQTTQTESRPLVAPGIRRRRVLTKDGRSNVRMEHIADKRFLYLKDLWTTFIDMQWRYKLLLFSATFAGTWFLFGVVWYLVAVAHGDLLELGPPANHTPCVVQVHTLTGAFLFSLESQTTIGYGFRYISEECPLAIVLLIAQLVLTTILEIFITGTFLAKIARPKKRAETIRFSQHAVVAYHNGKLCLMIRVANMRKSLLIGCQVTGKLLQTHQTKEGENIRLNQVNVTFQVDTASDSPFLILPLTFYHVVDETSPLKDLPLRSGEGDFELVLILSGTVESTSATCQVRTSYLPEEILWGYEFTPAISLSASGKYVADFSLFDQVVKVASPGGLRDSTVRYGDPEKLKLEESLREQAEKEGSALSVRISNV

[2] = molecular target: T2, Kir4.1 (Rattus norvegicus, UniProt P49655, T128A); conditions: read-out: % inhibition at 10 μM
T2 sequence (P49655 1-379 T128A): T1 sequence (P49655 1-379) with T128A

[3] = molecular target: T3, Kir4.1 (Rattus norvegicus, UniProt P49655, T127A); conditions: read-out: % inhibition at 10 μM
T3 sequence (P49655 1-379 T127A): T1 sequence (P49655 1-379) with T127A

[4] = molecular target: T1, Kir4.1; conditions: read-out: % inhibition at 10 μM
[5] = molecular target: T4, Kir4.1 (Rattus norvegicus, UniProt P49655, E158N); conditions: read-out: % inhibition at 10 μM
T4 sequence (P49655 1-379 E158N): T1 sequence (P49655 1-379) with E158N

IC50 [1]: 1800 ± 300 nM
inhibition at 10 µM [2]: 66.1 ± 1.1%
inhibition at 10 µM [3]: 89.7 ± 1.1%
inhibition at 10 µM [4]: 88.3 ± 1.5%
inhibition at 10 µM [5]: 79.8 ± 2.2%
SMILES: CCN(CC)CCCC(C)Nc1c2ccc(Cl)cc2nc2ccc(OC)cc12 (centres unmarked) [quinacrine]
